From ChEMBL document CHEMBL1133525, “A selenopyrylium photosensitizer for photodynamic therapy related in structure to the antitumor agent AA1 with potent in vivo activity and no long-term skin photosensitization” (J Med Chem, 2000)

Assay: Partition coefficient (logP)
Format: physicochemical
Conditions: octanol/water

Row | Structure (SMILES) | logP
1 | CN(C)c1ccc(-c2cc(-c3ccccc3)[s+]c(-c3ccc(N(C)C)cc3)c2)cc1 | 2.5
2 | CN(C)c1ccc(-c2cc(-c3ccccc3)[se+]c(-c3ccc(N)cc3)c2)cc1 | 0.8
3 | CN(C)c1ccc(-c2cc(-c3ccccc3)[te+]c(-c3ccc(N)cc3)c2)cc1 | 0.5
4 | CN(C)c1ccc(-c2cc(-c3ccccc3)[s+]c(-c3ccc(N)cc3)c2)cc1 | 0
5 | CN(C)c1ccc(-c2cc(-c3ccccc3)[se+]c(-c3ccc(N(C)C)cc3)c2)cc1 | 2.4
6 | CN(C)c1ccc(-c2cc(-c3ccccc3)[te+]c(-c3ccc(N(C)C)cc3)c2)cc1 | 2.5
